Source: ChEMBL document CHEMBL5537154, “Smart glypican-3-targeting peptide-chlorin e6 conjugates for targeted photodynamic therapy of hepatocellular carcinoma” (Eur J Med Chem, 2024)
pIC50: −log10 of the molar value. Active and inactive are the calls of the source. The rule behind the calls is not given here. Peptide text beside a SMILES is read from it.

Tests used:
[1] = Drug distribution in tumor of BALB/C nude mouse model xenografted with human HepG2 cells at 1 to 2 uM/kg, iv measured for 1 to 4 hrs by fluorescence imaging analysis; type: ADME, organism-based, Neoplasm; conditions: in vivo, dose lower 1 µM/Kg, time lower 1 hrs, dose upper 2 µM/Kg, time upper 4 hrs
[2] = Drug distribution in tumor of BALB/C nude mouse model xenografted with human HepG2 cells at 1 to 2 uM/kg, iv measured for 1 to 6 hrs by fluorescence imaging analysis; type: ADME, organism-based, Neoplasm; conditions: in vivo, dose lower 1 µM/Kg, time lower 1 hrs, dose upper 2 µM/Kg, time upper 6 hrs
[3] = Toxicity in BALB/C nude mouse model xenografted with human HepG2 cells assessed as change in heart weight at 1 to 2 uM/kg, iv administered every two days for 21 days along with 250 mW/cm2 light irradiation at 660 nm for 10 mins at 1 hr post-compound administration; type: organism-based; conditions: in vivo, 505.17 h, dose 1-2 µM/Kg, time 505.166 hrs
[4] = Drug uptake in human HepG2 cells at 10 uM by confocal microscopy; type: ADME, cell-based; conditions: hepg2, 10 µM, TDE = time-dependent effect, time 4-24 hrs
[5] = Drug uptake in endoplasmic reticulum of human Huh-7 cells at 2 uM incubated for 24 hrs by ER tracker green probe based laser confocal microscopy; type: ADME, subcellular; conditions: huh-7, 24 h
[6] = Toxicity in BALB/C nude mouse model xenografted with human HepG2 cells assessed as damage in spleen at 1 to 2 uM/kg, iv administered every two days for 21 days along with 250 mW/cm2 light irradiation at 660 nm for 10 mins at 1 hr post-compound administration by H and E staining based analysis; type: organism-based; conditions: in vivo, 505.17 h, dose 1-2 µM/Kg, time 505.166 hrs
Huh-7 [7] = test: Antiproliferative activity against human Huh-7 cells under dark condition by CCK8 assay; type: functional, cell-based
MCF7 [8] = test: Antitumor activity against human MCF7 cells xenografted in BALB/C nude mouse model assessed as decrease in tumor growth at 1 to 2 uM/kg, iv administered every two days for 21 days along with 250 mW/cm2 light irradiation at 660 nm for 10 mins at 1 hr post-compound administration; type: functional, organism-based; conditions: dose 1-2 µM/Kg, time 505.166 hrs
HepG2 [9] = test: Induction of apoptosis in human HepG2 cells assessed as late apoptotic cells at 2.5 uM incubated for 24 hrs followed by 10 J/cm2 of light irradiation at 660 nm measured after 24 hrs by Annexin V-FITC/PI staining based flow cytometry relative to control; type: functional; conditions: time 48 hrs
HepG2 [10] = test: Induction of apoptosis in human HepG2 cells assessed as early apoptotic cells under dark condition at 5 uM incubated for 24 hrs by Annexin V-FITC/PI staining based flow cytometry relative to control; type: functional
HepG2 [11] = test: Induction of apoptosis in human HepG2 cells assessed as necrotic cells at 2.5 uM incubated for 24 hrs followed by 10 J/cm2 of light irradiation at 660 nm measured after 24 hrs by Annexin V-FITC/PI staining based flow cytometry relative to control; type: functional; conditions: time 48 hrs
[12] = Drug uptake in endoplasmic reticulum of human HepG2 cells assessed as pearsons co-efficient of ER tracker green-yellow signal at 2 uM incubated for 24 hrs by laser confocal microscopy; type: ADME, subcellular; conditions: hepg2, 24 h
[13] = Drug uptake in human HUVEC cells at 500 nM incubated for 0.5 hrs by flow cytometry; type: ADME, cell-based; conditions: 0.5 µM
HepG2 [14] = test: Antiproliferative activity against human HepG2 cells under dark condition by CCK8 assay; type: functional, cell-based
HepG2 [15] = test: Antiproliferative activity against human HepG2 cells under 10 J/cm2 light irradiation at 660 nm by CCK8 assay; type: functional, cell-based; conditions: HepG2, light or radiation study
[16] = Drug uptake in human HepG2 cells at 500 nM incubated for 2 hrs by flow cytometry; type: ADME, cell-based; conditions: hepg2, 2 h, 0.5 µM
Huh-7 [17] = test: Induction of cell cycle arrest at S phase in human Huh-7 cells at 1 uM under 10 J/cm2 light irradiation at 660 nm by flow cytometry; type: functional, cell-based
HepG2 [18] = test: Induction of apoptosis in human HepG2 cells assessed as late apoptotic cells under dark condition at 5 uM incubated for 24 hrs by Annexin V-FITC/PI staining based flow cytometry relative to control; type: functional
MCF7 [19] = test: Antiproliferative activity against human MCF7 cells under dark condition by CCK8 assay; type: functional, cell-based
[20] = Drug uptake in human MCF7 cells at 10 uM incubated for 4 hrs by confocal microscopy; type: ADME, cell-based; conditions: mcf7, 4 h
[21] = Toxicity in BALB/C nude mouse model xenografted with human HepG2 cells assessed as damage in liver at 1 to 2 uM/kg, iv administered every two days for 21 days along with 250 mW/cm2 light irradiation at 660 nm for 10 mins at 1 hr post-compound administration by H and E staining based analysis; type: organism-based; conditions: in vivo, 505.17 h, dose 1-2 µM/Kg, time 505.166 hrs
HepG2 [22] = test: Induction of ROS generation in human HepG2 cells at 10 uM incubated for 24 hrs by DCFH-DA probe based flow cytometry; type: functional, cell-based
[23] = Drug uptake in human MCF7 cells incubated for 2 hrs by fluorescence based assay; type: ADME, cell-based; conditions: mcf7, 2 h
[24] = Drug distribution in kidney of BALB/C nude mouse model xenografted with human HepG2 cells at 1 to 2 uM/kg, iv measured for 1 to 4 hrs by fluorescence imaging analysis; type: ADME, organism-based; conditions: in vivo, dose lower 1 µM/Kg, time lower 1 hrs, dose upper 2 µM/Kg, time upper 4 hrs
HepG2 [25] = test: Induction of apoptosis in human HepG2 cells assessed as early apoptotic cells under dark condition at 2.5 uM incubated for 24 hrs by Annexin V-FITC/PI staining based flow cytometry relative to control; type: functional
[26] = Toxicity in BALB/C nude mouse model xenografted with human HepG2 cells assessed as change in liver weight at 1 to 2 uM/kg, iv administered every two days for 21 days along with 250 mW/cm2 light irradiation at 660 nm for 10 mins at 1 hr post-compound administration; type: organism-based; conditions: in vivo, 505.17 h, dose 1-2 µM/Kg, time 505.166 hrs
[27] = […] assessed as decrease in fluorescence intensity of DMA; type: functional
[28] = Drug distribution in spleen of BALB/C nude mouse model xenografted with human HepG2 cells at 1 to 2 uM/kg, iv measured for 1 to 4 hrs by fluorescence imaging analysis; type: ADME, organism-based; conditions: in vivo, dose lower 1 µM/Kg, time lower 1 hrs, dose upper 2 µM/Kg, time upper 4 hrs
[29] = Photostability of compound under 250 mW/cm2 light irradiation at 660 nm incubated for 10 mins by UV spectrophotometry; type: physicochemical; conditions: 0.66 µM
HepG2 [30] = test: Induction of apoptosis in human HepG2 cells assessed as late apoptotic cells at 5 uM incubated for 24 hrs followed by 10 J/cm2 of light irradiation at 660 nm measured after 24 hrs by Annexin V-FITC/PI staining based flow cytometry relative to control; type: functional; conditions: time 48 hrs
Huh-7 [31] = test: Antiproliferative activity against human Huh-7 cells under 10 J/cm2 light irradiation at 660 nm by CCK8 assay; type: functional, cell-based; conditions: Huh-7, light or radiation study
[32] = Drug distribution in liver of BALB/C nude mouse model xenografted with human HepG2 cells at 1 to 2 uM/kg, iv measured for 1 to 4 hrs by fluorescence imaging analysis; type: ADME, organism-based; conditions: in vivo, dose lower 1 µM/Kg, time lower 1 hrs, dose upper 2 µM/Kg, time upper 4 hrs
[33] = Toxicity in BALB/C nude mouse model xenografted with human HepG2 cells assessed as drug tolerance at 1 to 2 uM/kg, iv administered every two days for 21 days along with 250 mW/cm2 light irradiation at 660 nm for 10 mins at 1 hr post-compound administration; type: organism-based; conditions: in vivo, 505.17 h, dose 1-2 µM/Kg, time 505.166 hrs

With `C=Cc1c(C)c2cc3nc(c(CC(=O)O)c4[nH]c(cc5nc(cc1[nH]2)C(C)=C5CC)c(C)c4C(=O)NCCCC(=O)N[C@@H](CC(=O)O)C(=O)N[C@@H](Cc1cnc[nH]1)C(=O)N[C@@H](CC(C)C)C(=O)N[C@@H](C)C(=O)N[C@@H](CO)C(=O)N[C@@H](CC(C)C)C(=O)N[C@@H](Cc1c[nH]c2ccccc12)C(=O)N[C@@H](Cc1c[nH]c2ccccc12)C(=O)NCC(=O)N[C@H](C(=O)N[C@@H](CCC(=O)O)C(=O)N[C@@H](CC(C)C)C(=O)O)[C@@H](C)O)[C@@H](CCC(=O)O)[C@@H]3C` (HELM PEPTIDE1{[C=Cc1c(C)c2cc3nc(c(CC(=O)O)c4[nH]c(cc5nc(cc1[nH]2)C(C)=C5CC)c(C)c4C(=O)[*:2])[C@@H](CCC(=O)O)[C@@H]3C].[O=C(CCCN[*:1])[*:2]].D.H.L.A.S.L.W.W.G.T.E.L}$$$$V2.0) the Drug uptake [1] was “Active”, the Drug uptake [2] was “Active” and the Activity [3] was “Non-Toxic”. For the same compound, the Drug uptake [4] was “Tde”, the Drug uptake [5] was “Active” and the Activity [6] was “Non-Toxic”. The pIC50 (Huh-7 [7]) was under 4.00, the Activity (MCF7 [8]) was “Active” and the Activity (HepG2 [9]) was 17.8%. It also gave an Activity (HepG2 [10]) of 2.3%, an Activity (HepG2 [11]) of 74% and an Activity [12] of 0.65. For the same compound, the Drug uptake [13] was “Not Active”, the pIC50 (HepG2 [14]) was under 4.00 and the pIC50 (HepG2 [15]) was 6.09. The Drug uptake [16] was “Dose-Dependent Effect”, the Activity (Huh-7 [17]) was “Active” and the Activity (HepG2 [18]) was 1.7%. For the same compound, the pIC50 (MCF7 [19]) was under 4.00, the Drug uptake [20] was “Not Active” and the Activity [21] was “Non-Toxic”. The Activity (HepG2 [22]) was “inactive”, the Drug uptake [23] was “Not Active” and the Drug uptake [24] was “Not Active”. For the same compound, the Activity (HepG2 [25]) was 2.7%, the Activity [26] was “Non-Toxic” and the Activity [27] was “Active”. For the same compound, the Drug uptake [28] was “Not Active”, the Stability [29] was “Stable” and the Activity (HepG2 [30]) was 9.3%. For the same compound, the pIC50 (Huh-7 [31]) was 5.62, the Drug uptake [32] was “Not Active” and the Activity [33] was “Non-Toxic”.
